In PubChem BioAssay (NCI) one finds GI50 and TGI data, which are given here for eight compounds.

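Growth conditions: 96-well plates. Treatment: test compound, 48 hours, 5 concentrations. Analysis: linear interpolation between bracketing concentrations; unreached endpoints set to highest concentration. GI50 = concentration required for 50% inhibition of growth. The concentration for full growth arrest is given as TGI.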

Common to all, as to assay: NCI tumour cell line growth inhibition, 48 h
For assay [1], the system named is HCT-116 colon.
Assay [2] has as its system HL-60(TB) leukemia.
Assay [3] concerns KM12 colon.
In assay [4] the test system is LOX IMVI melanoma.
Assay [5] concerns MCF7 breast.
For assay [6], the system named is NCI-H522 lung.
Assay [7] relates to RXF 393 renal.
Assay [8] deals with SK-MEL-28 melanoma.
Assay [9] relates to SR leukemia.
For assay [10], the system named is HOP-92 NSCLC.

With `NC(=O)c1sc(-n2cnc3ccccc32)cc1OCc1ccccc1Br`, the GI50 in assay [1] was 2.61 µM; in [2] it was 1.28 µM; in assay [3] it was 1.26 µM; in assay [4], 1.98 µM; in assay [5], 0.86 µM; in assay [6] it was 3.99 µM. In addition, the GI50 in [7] is 1.73 µM; in assay [8], above 25 µM; in [9], 3.09 µM. Further, the TGI in [1] is above 25 µM; in assay [2], above 25 µM; in assay [3], above 25 µM; in [4], above 25 µM; in assay [5], above 25 µM; in [6], 12.7 µM. Besides, the TGI in [7], in assay [8] and in assay [9] was above 25 µM in each case.

Take `O=C(Nc1ccccc1)NS(=O)(=O)c1ccc(-n2nc3c(c2-c2cccs2)Cc2ccccc2-3)cc1`: the GI50 in [1] was 9.13 µM; in assay [10] it was 12.3 µM; in [3] it was 8.08 µM; in assay [4] it was 12 µM; in assay [5], 13.4 µM; in [6], 31.5 µM. The GI50 in assay [7] was 85.3 µM; in assay [8], 50.2 µM. For the same compound, the TGI in assay [1] is 21.3 µM; in assay [10] it was above 100 µM; in [3], above 100 µM; in [4] it was 33.6 µM; in assay [5] it was above 100 µM; in assay [6] it was above 100 µM. The TGI in assay [7] and in [8] was above 100 µM each time.

`COc1ccc(C(=O)Cn2c(C(=O)c3ccccc3)nc(-c3ccc(OC)cc3)c2-c2ccc(OC)cc2)cc1`: the GI50 in [1] was above 100 µM; in assay [2], above 100 µM; in [10], 24.5 µM; in assay [3], above 100 µM; in assay [4] it was above 100 µM; in assay [5] it was above 100 µM. Further, the GI50 in [6] is above 100 µM; in assay [7] it was 19.9 µM; in assay [8], above 100 µM. Also, the TGI in [1] was above 100 µM; in assay [2], above 100 µM; in assay [10], 60.4 µM; in assay [3], above 100 µM; in [4] it was above 100 µM; in [5], above 100 µM. The TGI in [6] was above 100 µM; in assay [7], 49.2 µM; in [8] it was above 100 µM.

Turning to `COc1ccc(-c2nc3sccn3c2/C(N)=N/C(=N)N)cc1OC`, the GI50 in assay [1] was 19.1 µM; in assay [10], 56.5 µM; in assay [3], 24.7 µM; in assay [4], 37.5 µM; in assay [5] it was 56.9 µM; in assay [6] it was 7.85 µM. The values for the GI50 in assay [7], in assay [8] and in [9] were above 100 µM, 32.5 µM and 30.5 µM, respectively. Further, the TGI in assay [1] was 45.2 µM; in assay [10] it was above 100 µM; in assay [3] it was 81.8 µM; in assay [4], above 100 µM; in assay [5], above 100 µM; in assay [6], above 100 µM. Moreover, the TGI was above 100 µM in assay [7], above 100 µM in assay [8] and 77.3 µM in assay [9].

As to `CCN(CCO)CC1CCCC2CCCCC21` (centres undefined), the TGI in assay [1], in [10], in assay [3], in assay [5], in assay [6] and in assay [7] was above 100 µM each time. For the same compound, the TGI in assay [8] was above 100 µM.

On to `CO[C@H](C(=O)[C@@H](O)[C@@H](C)O)[C@@H]1Cc2cc3cc(O[C@H]4C[C@@H](O[C@H]5C[C@@H](O)[C@H](O)C(C)O5)[C@H](O)C(C)O4)c(C)c(O)c3c(O)c2C(=O)[C@H]1O[C@H]1C[C@@H](O[C@H]2C[C@@H](O[C@H]3C[C@](C)(O)C(=O)C(C)O3)[C@@H](O)C(C)O2)[C@H](O)C(C)O1` (some centres undefined), for which the GI50 in assay [1] is 0.0444 µM; in [2], 0.592 µM; in assay [10] it was 0.0852 µM; in assay [3], 0.0672 µM; in [5], 0.0208 µM; in assay [6], 0.0288 µM. Further, the GI50 in assay [7] is 0.0515 µM; in assay [8], 0.053 µM; in assay [9], 0.0385 µM. The TGI is above 15.7 µM in assay [1]; above 21 µM in assay [2]; 0.801 µM in assay [10]; 6.67 µM in assay [3]; above 33.2 µM in [5]; 0.285 µM in [6]. The TGI is 0.119 µM in assay [7], 0.203 µM in [8] and above 33.2 µM in assay [9].

For `Cn1c2ccccc2c2c(Nc3ccccc3)c3ccccc3nc21`, the GI50 was 13.2 µM in [1]; 13.9 µM in [10]; 5.29 µM in assay [5]; 45.6 µM in assay [6]; 17 µM in [8]. Also, the TGI in assay [1] was 36.1 µM; in assay [10] it was 56.5 µM; in assay [5], 25.4 µM; in assay [6] it was above 100 µM; in assay [8], 49.6 µM.

As for `COc1cc(CNc2cnc3cc(N)cc(N)c3n2)cc(OC)c1`, the GI50 in assay [1] was 16.3 µM; in assay [2] it was 32.9 µM; in [10], 10.3 µM; in assay [3], 22.5 µM; in [5] it was 24.5 µM; in [6], 23.8 µM. In addition, in [9], the GI50 is 18.8 µM. Moreover, the TGI in assay [1] is 29.8 µM; in assay [2], above 100 µM; in assay [10], 25.9 µM; in [3], 71.8 µM; in assay [5], above 100 µM; in assay [6] it was 78.2 µM. Also, the TGI in assay [9] was above 100 µM.
